Laboratory results as given in patent US8080539B2, “Method of treating human preeclampsia employing resibufagenin” (Scott and White Healthcare, priority 2004, dated 2011).
Values joined by “and” are separate entries in the source; they are usually repeats but may differ in a detail not shown here. Equal entries are not always repeated.

Columns and labels:
[1] = test system: pregnant rats; experiment: Blood pressure (tail cuff) in pregnant rats made hypertensive with MBG, then treated with RBG; format: in vivo, rat
Procedure: In order to confirm the effectiveness of RBG, experiments were performed. In the experiment, a group of four pregnant rats was provided with a blood pressure cuff on their tails in order to determine the base line blood pressure as shown in the table. In order to create hypertension, MBG was administered to the rats.
A dosage of approximately 7 mg per kg of rat weight with the rats weighing in the range of about 200-250 g was employed daily in order to determine the effectiveness of resibufagenin in the treatment of preeclampsia. The dosage was administered intraperitonially and the rats monitored after about three to four days of treatment. The MBG and RBG were administered in a suitable vehicle such as dimethylsulfoxide (DMSO).

[2] = test system: vessels from normal pregnant animals or rats; experiment: Perfusion of dissected vessels from normal pregnant rats with marinobufagenin; parameters: species or system rat; details: vessels from normal pregnant rats perfused with marinobufagenin
Text: (§1) It is elevated substantially more in preeclamptic rats.

[3] = test system: vessels from preeclamptic rats; experiment: Perfusion of dissected vessels from preeclamptic rats with marinobufagenin; parameters: species or system rat; details: vessels from preeclamptic rats perfused with marinobufagenin; average
Text: as §1

[4] = test system: cellular systems; details: cited from earlier work

SMILES	BP after MBG ([1]; individual pregnant rats, tail blood pressure cuff, MBG administered to create hypertension)	constriction of vessels [2]	constriction of vessels as compared with control [3]	change in blood pressure after treatment with RBG ([1]; all four pregnant rats, approximately 7 mg per kg daily intraperitoneally, about three to four days)	BP after RBG ([1]; individual pregnant rats made hypertensive with MBG, RBG approximately 7 mg per kg daily intraperitoneally in DMSO, after about three to four days of treatment)	biological effect in cellular systems [4]
C[C@]12CC[C@H](O)C[C@@]1(O)CC[C@@H]1[C@@H]2CC[C@]2(C)[C@@H](c3ccc(=O)oc3)C[C@H]3O[C@]132 [MBG, marinobufagenin]	125 mmHg and 130 mmHg and 115 mmHg and 135 mmHg	do not constrict	about 36%	–	–	–
C[C@]12CC[C@H](O)C[C@H]1CC[C@@H]1[C@@H]2CC[C@]2(C)[C@@H](c3ccc(=O)oc3)C[C@H]3O[C@]132 [RBG, Resibufagenin]	–	–	–	substantial reduction in blood pressure	95 mmHg and 120 mmHg and 110 mmHg and 105 mmHg	no biological effect
